Source: ChEMBL document CHEMBL2417358, “Design, stereoselective synthesis, and biological evaluation of novel tri-cyclic compounds as inhibitor of apoptosis proteins (IAP) antagonists” (Bioorg Med Chem, 2013)

Key:
[1] = tested on: MDA-MB-231; assay: Growth inhibition of human MDA-MB-231 cells after 72 hrs by luminescence assay; assay type: functional; conditions: MDA-MB-231, 72 h
[2] = Metabolic stability in human liver microsomes assessed as compound remaining at 1 umol/L after 15 to 30 mins by LC/MS/MS analysis; assay type: ADME, Microsome; conditions: read-out: Stability
[3] = Metabolic stability in mouse liver microsomes assessed as compound remaining at 1 umol/L after 15 to 30 mins by LC/MS/MS analysis; assay type: ADME, Microsome; conditions: read-out: Stability
[4] = tested on: Mus musculus; assay: Upregulation of TNFalpha mRNA level in human MDA-MB-231 cells expressing luciferase xenografted in po dosed mouse after 6 hrs by RT-PCR analysis; assay type: functional, organism-based

SMILES | GI50 [1] | microsomal CLint at 1 µM [2] | microsomal CLint at 1 µM [3] | Activity [4]
CN[C@@H](C)C(=O)N[C@H](C(=O)N1C[C@H]2CCCN2C[C@H]1C(=O)N[C@@H]1CCOc2ccccc21)C1CCCCC1 | 5.7 nM | – | – | –
CN[C@@H](C)C(=O)N[C@H](C(=O)N1C[C@H]2C[C@@H]3C[C@@H]3N2C[C@H]1C(=O)N[C@@H]1CCOc2ccccc21)C1CCCCC1 | 7.8 nM | 72 µL/min/mg | 96 µL/min/mg | Dose-dependent effect
CN[C@@H](C)C(=O)N[C@H](C(=O)N1C[C@H]2C[C@H]3C[C@H]3N2C[C@H]1C(=O)N[C@@H]1CCOc2ccccc21)C1CCCCC1 | 83 nM | 39 µL/min/mg | 45 µL/min/mg | –
